Patent US9758445B2, “Preparation of surfactants via cross-metathesis” (MATERIA, INC., priority 2013, dated 2017)
Like-named read-outs stand apart in the source and are kept apart here.

Key:
[1] = Surfactant Foaming Test in tap water; type: physicochemical; set-up: key: A: No Foam Generated; B: Small Volume of Foam Generated; C: Large Volume of Foam Generated; details: surfactant 0.023 wt %, tap water 7.0 mL, 23° C., shaken vigorously, foaming recorded after standing 3 minutes
Method: To a 20 mL scintillation vial was added surfactant (0.023 wt %) and tap water (7.0 mL, 23° C.). The vial was sealed and the solution was shaken vigorously. The solution was allowed to stand for 3 minutes and foaming was recorded.

[2] = Surface tension above CMC; type: physicochemical
[3] = Krafft Point from the abrupt increase in electrical conductivity as a function of temperature; type: physicochemical
Method: Krafft Point or Krafft Temperature is defined as the […]. Surfactants form micelles above their Krafft Point and the solubility in water increases abruptly. The Krafft point was determined by the abrupt increase in the electrical conductivity of as a function of temperature. The intersection of the two solubility lines is the Krafft Point.

[4] = Critical Micelle Concentration (CMC) from the electrical conductivity-concentration curve at constant temperature; type: physicochemical
Method: The Critical Micelle Concentration (CMC) is defined as the concentration of surfactants above which micelles form and all additional surfactants added to the system go to micelles. The CMC is measured by the electrical conductivity-concentration curve at constant temperature.

[5] = at 20° C.; purity 91%; N. M. van Os et al. Tenside Surf. Det. 1992, 29 175; cited from earlier work
[6] = purity 91%; N. M. van Os et al. Tenside Surf. Det. 1992, 29 175; cited from earlier work

SMILES | Surfactant Foaming Test Results [1] | also measured
CCCCCCCCC(C)c1ccc(CO)cc1 (centres unmarked) [R=CH2OH; n=7, (4-(Decan-2-yl)phenyl)methanol] | A | 
CCCCCCCCCC(C)c1ccc(S(=O)(=O)O)cc1 (centres unmarked) [2-PhC11 LAS, sodium 4-(undecan-2-yl)benzenesulfonate] |  | Surface Tension [2]: 43 dynes/cm; Krafft Point [3]: 23.0 °C; CMC (mmol/L) at Temp (° C.) ([4]; at 22.0° C.): 1.9 at 22.0 °C mmol/L
CCCCCCCCC(C)c1ccc(S(=O)(=O)O)cc1 (centres unmarked) [2-PhC10 LAS, sodium 4-(decan-2-yl)benzenesulfonate] |  | Surface Tension [2]: 43 dynes/cm; Krafft Point [3]: 22.5 °C; CMC (mmol/L) at Temp (° C.) [5]: 4.5 at 20 °C mmol/L; CMC (mmol/L) at Temp (° C.) ([4]; at 22.0° C.): 4.4 at 22.0 °C mmol/L; Krafft Point [6]: 22.0 °C (NR^2)
CCCCCCCCCCC(C)c1ccc(CO)cc1 (centres unmarked) [R=CH2OH; n=9, (4-(Dodecan-2-yl)phenyl)methanol] | A | 
CCCCCCCCC(C)c1ccc(COCCOCCOCCOCCOC)cc1 (centres unmarked) [R=CH2O(CH2CH2O)4CH3; n=7, 1-(4-(Decan-2-yl)phenyl)-2,5,8,11,14-pentaoxapentadecane] | C | 
CCCCCCCCCCCC(C)c1ccc(COCCOCCOCCO)cc1 (centres unmarked) [R=CH2O(CH2CH2O)3H; n=10, 2-(2-(2-((4-(tridecan-2-yl)benzyl)oxy)ethoxy)ethoxy)ethanol] | C | 
CCCCCCCCCC(C)c1ccccc1 (centres unmarked) [R=H; n=8, 2-Phenylundecane] | A | 
CCCCCCCCCCCC(C)c1ccccc1 (centres unmarked) [R=H; n=10, 2-phenyltridecane] | A | 
CCCCCCCCCCC(C)c1ccc(COCCOCCOCCO)cc1 (centres unmarked) [R=CH2O(CH2CH2O)3H; n=9, 2-(2-(2-((4-(dodecan-2-yl)benzyl)oxy)ethoxy)ethoxy)ethanol] | C | 
CCCCCCCCCCC(C)c1ccc(COCCOCCOCCOCCO)cc1 (centres unmarked) [R=CH2O(CH2CH2O)4H; n=9, 1-(4-(Dodecan-2-yl)phenyl)-2,5,8,11-tetraoxatridecan-13-ol] | C | 
CCCCCCCCCCCCCCC(C)c1ccc(CO)cc1 (centres unmarked) [R=CH2OH; n=13, (4-(Hexadecan-2-yl)phenyl)methanol] | A | 
CCCCCCCCCCCCC(C)c1ccc(COCCOCCOCCOCCO)cc1 (centres unmarked) [R=CH2O(CH2CH2O)4H; n=11, 1-(4-(Tetradecan-2-yl)phenyl)-2,5,8,11-tetraoxatridecan-13-ol] | C | 
CCCCCCCCCCCC(C)c1ccc(CO)cc1 (centres unmarked) [R=CH2OH; n=10, (4-(Tridecan-2-yl)phenyl)methanol] | A | 
CCCCCCCCC(C)c1ccccc1 (centres unmarked) [R=H; n=7, 2-Phenyldecane] | A | 
CCCCCCCCCCC(C)c1ccccc1 (centres unmarked) [R=H; n=9, 2-Phenyldodecane] | A | 
CCCCCCCCCC(C)c1ccc(COCCOCCOCCOCCOC)cc1 (centres unmarked) [R=CH2O(CH2CH2O)4CH3; n=8, 1-(4-(Undecan-2-yl)phenyl)-2,5,8,11,14-pentaoxapentadecane] | B | 
CCCCCCCCCCC(C)c1ccc(S(=O)(=O)O)cc1 (centres unmarked) [2-PhC12 LAS, sodium 4-(dodecan-2-yl)benzenesulfonate] |  | Surface Tension [2]: 41 dynes/cm; Krafft Point [3]: 22.5 °C; CMC (mmol/L) at Temp (° C.) ([4]; at 22.5° C.): 2.1 at 22.5 °C mmol/L
CCCCCCCCC(C)c1ccc(COCCOCCOCCO)cc1 (centres unmarked) [R=CH2O(CH2CH2O)3H; n=7, 2-(2-(2-((4-(Decan-2-yl)benzyl)oxy)ethoxy)ethoxy)ethanol] | C | 
CCCCCCCCC(C)c1ccc(COCCOCCOCCOCCO)cc1 (centres unmarked) [R=CH2O(CH2CH2O)4H; n=7, 1-(4-(Decan-2-yl)phenyl)-2,5,8,11-tetraoxatridecan-13-ol] | C | 
CCCCCCCCCCCCCCC(C)c1ccc(COCCOCCOCCOCCOC)cc1 (centres unmarked) [R=CH2O(CH2CH2O)4CH3; n=13, 1-(4-(Hexadecan-2-yl)phenyl)-2,5,8,11,14-pentaoxapentadecane] | B | 
CCCCCCCCCCCC(C)c1ccc(COCCO)cc1 (centres unmarked) [R=CH2OCH2CH2OH; n=10, 2-((4-(Tridecan-2-yl)benzyl)oxy)ethanol] | A | 
CCCCCCCCCCCCCCC(C)c1ccccc1 (centres unmarked) [R=H; n=13, 2-Phenylhexadecane] | A | 
CCCCCCCCC(C)c1ccc(COCCOC)cc1 (centres unmarked) [R=CH2OCH2CH2OCH3; n=7, 1-(Decan-2-yl)-4-((2-methoxyethoxy)methyl)benzene] | B | 

SMILES | Surfactant Foaming Test Results [1] | also measured
CCCCCCCCCCCCC(C)c1ccc(COCCOCCOCCO)cc1 (centres unmarked) [R=CH2O(CH2CH2O)3H; n=11, 2-(2-(2-((4-(tetradecan-2-yl)benzyl)oxy)ethoxy)ethoxy)ethanol] | C | 
CCCCCCCCCCCCC(C)c1ccccc1 (centres unmarked) [R=H; n=11, 2-phenyltetradecane] | A | 
CCCCCCCCCCCCC(C)c1ccc(CO)cc1 (centres unmarked) [R=CH2OH; n=11, (4-(Tetradecan-2-yl)phenyl)methanol] | A | 
CCCCCCCCCC(C)c1ccc(COCCO)cc1 (centres unmarked) [R=CH2OCH2CH2OH; n=8, 2-((4-(Undecan-2-yl)benzyl)oxy)ethanol] | A | 
CCCCCCCCCCCCCCC(C)c1ccc(COCCO)cc1 (centres unmarked) [R=CH2OCH2CH2OH; n=13, 2-((4-(Hexadecan-2-yl)benzyl)oxy)ethanol] | A | 
CCCCCCCCCC(C)c1ccc(CO)cc1 (centres unmarked) [R=CH2OH; n=8, (4-(Undecan-2-yl)phenyl)methanol] | A | 
CCCCCCCCCCC(C)c1ccc(COCCOCCOCCOC)cc1 (centres unmarked) [R=CH2O(CH2CH2O)3CH3; n=9, 1-(4-(Dodecan-2-yl)phenyl)-2,5,8,11-tetraoxadodecane] | B | 
CCCCCCCCCCCC(C)c1ccc(COCCOC)cc1 (centres unmarked) [R=CH2OCH2CH2OCH3; n=10, 1-((2-Methoxyethoxy)methyl)-4-(tridecan-2-yl)benzene] | C | 
CCCCCCCCCCCCCCC(C)c1ccc(COCCOCCOCCOCCO)cc1 (centres unmarked) [R=CH2O(CH2CH2O)4H; n=13, 1-(4-(Hexadecan-2-yl)phenyl)-2,5,8,11-tetraoxatridecan-13-ol] | C | 
CCCCCCCCCC(C)c1ccc(COCCOCCOCCOCCO)cc1 (centres unmarked) [R=CH2O(CH2CH2O)4H; n=8, 1-(4-(Undecan-2-yl)phenyl)-2,5,8,11-tetraoxatridecan-13-ol] | C | 
CCCCCCCCCCCCC(C)c1ccc(COCCO)cc1 (centres unmarked) [R=CH2OCH2CH2OH; n=11, 2-((4-(Tetradecan-2-yl)benzyl)oxy)ethanol] | A | 
CCCCCCCCCC(C)c1ccc(COCCOCCOCCO)cc1 (centres unmarked) [R=CH2O(CH2CH2O)3H; n=8, 2-(2-(2-((4-(undecan-2-yl)benzyl)oxy)ethoxy)ethoxy)ethanol] | C | 
CCCCCCCCC(C)c1ccc(COCCOCCOCCOC)cc1 (centres unmarked) [R=CH2O(CH2CH2O)3CH3; n=7, 1-(4-(Decan-2-yl)phenyl)-2,5,8,11-tetraoxadodecane] | A | 
CCCCCCCCCCC(C)c1ccc(COCCO)cc1 (centres unmarked) [R=CH2OCH2CH2OH; n=9, 2-((4-(Dodecan-2-yl)benzyl)oxy)ethanol] | A | 
CCCCCCCCC(C)c1ccc(COCCO)cc1 (centres unmarked) [R=CH2OCH2CH2OH; n=7, 2-((4-(Decan-2-yl)benzyl)oxy)ethanol] | A | 
CCCCCCCCCCCC(C)c1ccc(COCCOCCOCCOCCOC)cc1 (centres unmarked) [R=CH2O(CH2CH2O)4CH3; n=10, 1-(4-(Tridecan-2-yl)phenyl)-2,5,8,11,14-pentaoxapentadecane] | B | 
CCCCCCCCCCCC(C)c1ccc(COCCOCCOCCOCCO)cc1 (centres unmarked) [R=CH2O(CH2CH2O)4H; n=10, 1-(4-(Tridecan-2-yl)phenyl)-2,5,8,11-tetraoxatridecan-13-ol] | C | 
CCCCCCCCCCC(C)c1ccc(COCCOCCOCCOCCOC)cc1 (centres unmarked) [R=CH2O(CH2CH2O)4CH3; n=9, 1-(4-(Dodecan-2-yl)phenyl)-2,5,8,11,14-pentaoxapentadecane] | C | 
CCCCCCCCCCCCCCC(C)c1ccc(COCCOC)cc1 (centres unmarked) [R=CH2OCH2CH2OCH3; n=13, 1-(Hexadecan-2-yl)-4-((2-methoxyethoxy)methyl)benzene] | C | 
CCCCCCCCCCCCCCC(C)c1ccc(S(=O)(=O)O)cc1 (centres unmarked) [2-PhC16 LAS, sodium 4-(hexadecan-2-yl)benzenesulfonate] |  | Surface Tension [2]: 44 dynes/cm; Krafft Point [3]: 45.0 °C; CMC (mmol/L) at Temp (° C.) ([4]; at 44.0° C.): 1.5 at 44.0 °C mmol/L
CCCCCCCCCCCCC(C)c1ccc(COCCOCCOCCOC)cc1 (centres unmarked) [R=CH2O(CH2CH2O)3CH3; n=11, 1-(4-(Tetradecan-2-yl)phenyl)-2,5,8,11-tetraoxadodecane] | B | 
CCCCCCCCCCCCC(C)c1ccc(COCCOCCOCCOCCOC)cc1 (centres unmarked) [R=CH2O(CH2CH2O)4CH3; n=11, 1-(4-(Tetradecan-2-yl)phenyl)-2,5,8,11,14-pentaoxapentadecane] | B | 
CCCCCCCCCCCCC(C)c1ccc(COCCOC)cc1 (centres unmarked) [R=CH2OCH2CH2OCH3; n=11, 1-((2-Methoxyethoxy)methyl)-4-(tetradecan-2-yl)benzene] | C | 
